Test results taken from patent US9034886B2, “4-aminoquinazoline derivatives and uses thereof” (Shanghai Institute of Pharmaceutical Industry, priority 2011, dated 2015).
Like-named read-outs stand apart in the source and are kept apart here.

Assays:
HDACs = assay: In vitro inhibition of HDACs (HDAC Inhibitor Drug Screening Kit, Biovision K340-100); format: biochemical
Protocol: The in vitro inhibitory activities of the compounds towards HDACs were tested according to the instructions in the HDAC Inhibitor Drug Screening Kit (Biovision/Catalog #K340-100).
(1) The compounds to be tested were each individually prepared as 2 mM, 200 μM and 40 μM solutions and their inhibitory activities at these concentrations were tested.

HDAC1 = HDAC1 (Homo sapiens (Human), UniProt Q13547); assay: In vitro inhibition of subtype HDAC1 (HDAC1 Inhibitor Drug Screening Kit, Biovision); format: biochemical; details: for inhibition at 1 µM / inhibition at 10 µM: read-out: % Inhibition towards HDAC1
Sequence of HDAC1 (Q13547 whole entry): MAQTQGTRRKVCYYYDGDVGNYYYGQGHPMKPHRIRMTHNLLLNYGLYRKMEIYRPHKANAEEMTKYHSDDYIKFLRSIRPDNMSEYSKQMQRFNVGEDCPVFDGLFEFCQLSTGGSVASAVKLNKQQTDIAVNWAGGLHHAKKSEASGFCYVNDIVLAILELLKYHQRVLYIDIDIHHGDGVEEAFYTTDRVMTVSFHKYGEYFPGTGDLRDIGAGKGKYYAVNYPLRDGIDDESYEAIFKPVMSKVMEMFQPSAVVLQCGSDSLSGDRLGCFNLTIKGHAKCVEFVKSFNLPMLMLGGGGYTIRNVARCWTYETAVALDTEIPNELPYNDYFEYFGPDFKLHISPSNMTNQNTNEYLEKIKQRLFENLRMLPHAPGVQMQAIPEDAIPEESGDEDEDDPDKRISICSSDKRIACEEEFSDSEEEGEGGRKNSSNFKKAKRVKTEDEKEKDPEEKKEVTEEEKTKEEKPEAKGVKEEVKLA
Protocol: The in vitro inhibitory activities of the compounds towards the subtype HDAC1 were tested according to the instructions in the HDAC1 Inhibitor Drug Screening Kit (Biovision).
(1) The compounds to be tested were each individually prepared as 10 μM and 1 μM solutions and their inhibitory activities at these concentrations were tested.
Each dilution sample was placed in two wells and the enzyme inhibition IC50 of the compound was tested.

[1] = tested on: Hut78 T lymphocytic leukemia cells; assay: In vitro anti-proliferative effect, CCK-8 method, Hut78; format: cell-based; details: for inhibition at 10 µM / inhibition at 100 µM: read-out: Hut-78 (inhibition %)
Summary of the method: (§1)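 K562 and Hut78 cells exposed to compounds at 100 μM and 10 μM. Percent inhibition of proliferation determined by CCK-8 read-out.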

[2] = tested on: PANC-1 human pancreatic cancer cells; assay: In vitro anti-proliferative effect, CCK-8 method, PANC-1; format: cell-based; details: for inhibition at 10 µM / inhibition at 100 µM: Homo sapiens, PANC-1
Summary of the method: (§2)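 Cells exposed to compound at 10 μM or 100 μM; CCK-8 assay then used to derive inhibition percentages.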

[3] = tested on: Jurkat E6-1 human T-cell lymphoma; assay: In vitro anti-proliferative effect, CCK-8 method, Jurkat E6-1; format: cell-based
Summary of the method: as §2

[4] = tested on: K562 human chronic myelogenous leukemia cells; assay: In vitro anti-proliferative effect, CCK-8 method, K562; format: cell-based
Summary of the method: as §1

[5] = tested on: A549 human lung cancer cells; assay: In vitro anti-proliferative effect, CCK-8 method, A549; format: cell-based
Summary of the method: as §2

[6] = tested on: MDA-MB-435s human breast cancer cells; assay: In vitro anti-proliferative effect, CCK-8 method, MDA-MB-435s; format: cell-based; details: for inhibition at 10 µM / inhibition at 100 µM: Homo sapiens, MDA-MB-435S
Summary of the method: as §2

[7] = tested on: Hep3B2.1-7 human liver cancer cells; assay: In vitro anti-proliferative effect, CCK-8 method, Hep3B; format: cell-based
Summary of the method: as §2

[8] = tested on: PC-3 human prostate cancer; assay: In vitro anti-proliferative effect, CCK-8 method, PC-3; format: cell-based; details: for inhibition at 10 µM / inhibition at 100 µM: Homo sapiens
Summary of the method: as §2

[9] = tested on: Colo320 human colorectal cancer cell lines; assay: In vitro anti-proliferative effect, CCK-8 method, Colo320; format: cell-based; details: for inhibition at 10 µM / inhibition at 100 µM: Homo sapiens, COLO 320
Summary of the method: as §2

[10] = Maximum tolerance dose through intragastrical administration; format: in vivo; details: mice, administrated intragastrically
Summary of the method: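 ICR mice (8˜20 g, both sexes, 10 per group) fasted 6 h, then dosed once intragastrically at 0.3 ml/10 g. Physical signs and deaths recorded at 1, 2 and 4 h, then daily with body weight over 14 days; dead animals necropsied with pathology on suspicious organs.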

hERG potassium channel = hERG potassium channel (Homo sapiens (Human), UniProt Q12809); assay: Effects on hERG potassium channel; format: cell-based
Sequence of hERG potassium channel (Q12809 whole entry): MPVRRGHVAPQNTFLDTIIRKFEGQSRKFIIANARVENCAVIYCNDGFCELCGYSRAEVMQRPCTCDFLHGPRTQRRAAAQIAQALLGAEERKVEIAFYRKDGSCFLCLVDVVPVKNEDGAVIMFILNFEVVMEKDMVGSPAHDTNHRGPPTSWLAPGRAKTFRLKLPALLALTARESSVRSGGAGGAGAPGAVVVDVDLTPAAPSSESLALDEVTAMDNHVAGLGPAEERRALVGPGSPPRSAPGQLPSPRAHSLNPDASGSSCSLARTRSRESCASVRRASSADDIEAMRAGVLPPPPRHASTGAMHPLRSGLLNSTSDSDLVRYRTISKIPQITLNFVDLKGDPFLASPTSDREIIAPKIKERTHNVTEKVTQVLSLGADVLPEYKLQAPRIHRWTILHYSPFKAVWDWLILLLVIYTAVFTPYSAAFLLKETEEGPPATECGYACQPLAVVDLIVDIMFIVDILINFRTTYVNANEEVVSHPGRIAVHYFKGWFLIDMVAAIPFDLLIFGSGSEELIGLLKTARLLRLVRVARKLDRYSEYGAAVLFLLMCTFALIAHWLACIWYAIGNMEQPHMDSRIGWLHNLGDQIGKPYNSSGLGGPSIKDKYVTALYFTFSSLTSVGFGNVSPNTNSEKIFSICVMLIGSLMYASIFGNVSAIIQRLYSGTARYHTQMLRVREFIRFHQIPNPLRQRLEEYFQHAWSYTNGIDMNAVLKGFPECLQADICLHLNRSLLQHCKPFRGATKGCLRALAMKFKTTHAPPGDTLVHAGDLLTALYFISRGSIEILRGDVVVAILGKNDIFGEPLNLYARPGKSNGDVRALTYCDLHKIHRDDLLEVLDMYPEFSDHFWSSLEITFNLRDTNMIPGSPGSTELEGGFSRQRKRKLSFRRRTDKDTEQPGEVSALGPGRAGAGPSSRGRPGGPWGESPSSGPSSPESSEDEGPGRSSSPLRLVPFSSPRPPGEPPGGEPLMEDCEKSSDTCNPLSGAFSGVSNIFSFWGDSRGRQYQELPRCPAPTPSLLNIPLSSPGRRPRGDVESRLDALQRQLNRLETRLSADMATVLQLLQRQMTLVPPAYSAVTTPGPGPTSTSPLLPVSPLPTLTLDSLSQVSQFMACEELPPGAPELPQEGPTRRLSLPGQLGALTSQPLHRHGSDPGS

[11] = Preliminary pharmacokinetics; details: in vivo, rat
human A549 tumors = assay: Human A549 tumors transplanted in nude mice; format: in vivo; details: 50 mg/kg; for tumor inhibition %, A549 (lung cancer) / deaths, A549 model: nude mice; for deaths, A549 model: 8 mice in each group
human PC-3 tumors = assay: Human PC-3 tumors transplanted in nude mice; format: in vivo; details: 50 mg/kg
[12] = Homo sapiens, Jurkat E6.1, 10 μM
[13] = Homo sapiens, Jurkat E6.1, 100 μM
[14] = Homo sapiens, Hep3B cell strain, compound at 10 μM, CCK-8 method
[15] = Homo sapiens, Hep3B cell strain, compound at 100 μM, CCK-8 method
[16] = PC-3 cell strain, compound at 10 μM, CCK-8 method
[17] = PC-3 cell strain, compound at 100 μM, CCK-8 method
[18] = Colo320 cell strain, compound at 10 μM, CCK-8 method
[19] = Colo320 cell strain, compound at 100 μM, CCK-8 method

In the case of Nc1ccccc1NC(=O)c1ccc(CNc2ncnc3ccccc23)cc1 [Compound V-27, N-(2-aminophenyl)-4-[(quinazoline-4-amino)methyl]benzamide], the IC50 (HDACs) is reported as 1310 nM, the “inhibitory activity according to in vitro IC50 value against HDACs compared with MS-275” value (HDACs) is reported as “better inhibitory activities than MS-275” and the “Inhibition percentage (%) towards HDACs” value (HDACs; 40 μM) is reported as 73.2%. The “Inhibition percentage (%) towards HDACs” value (HDACs; 200 μM) was 82.6%, the “Inhibition percentage (%) towards HDACs” value (HDACs; 2 mM) was 91.9% and the “inhibitory activity on HDACs compared with MS-275” value (HDACs; concentrations of 2 mM, 200 μM, and 40 μM) was “significantly stronger inhibitory activities than MS-275”. It also gave an IC50 (HDAC1) of 212 nM, an inhibition at 1 µM (HDAC1) of 58.3% and an inhibition at 10 µM (HDAC1) of 83%. For the same molecule, the “inhibitory activity against HDAC1 compared with MS-275” value (HDAC1; both concentrations 10 μM and 1 μM) was “superior to that of MS-275”, the IC50 ([1]; Homo sapiens, HuT78) was 356 nM and the inhibition at 10 µM ([1]; Homo sapiens, HuT78) was 69.2%. For the same molecule, the inhibition at 100 µM ([1]; Homo sapiens, HuT78, 100 μM) was 89.3%, the inhibition at 10 µM ([2]; 10 μM) was 44.4% and the inhibition at 100 µM ([2]; 100 μM) was 69.5%. The IC50 ([3]; Homo sapiens, Jurkat E6.1) was 458 nM, the inhibition at 10 µM [3, 12] was 31.6% and the inhibition at 100 µM [3, 13] was 87.6%. It also gave an IC50 ([4]; Homo sapiens, K562) of 437 nM, an inhibition at 10 µM ([4]; Homo sapiens, K562, 10 μM) of 45% and an inhibition at 100 µM ([4]; Homo sapiens, K562, 100 μM) of 75%. For the same molecule, the IC50 ([5]; Homo sapiens, A549) was 3140 nM, the inhibition at 10 µM ([5]; Homo sapiens, A549, 10 μM) was 82.8% and the inhibition at 100 µM ([5]; Homo sapiens, A549, 100 μM) was 97.7%. It also gave an inhibition at 10 µM ([6]; 10 μM) of 28.5%, an inhibition at 100 µM ([6]; 100 μM) of 76.3% and an IC50 ([7]; Homo sapiens, Hep3B) of 1.52 µM. The inhibition at 10 µM [7, 14] was -12.3%, the inhibition at 100 µM [7, 15] was 68.3% and the inhibition at 10 µM [8, 16] was 43.8%. The inhibition at 100 µM [8, 17] was 59.9%, the inhibition at 10 µM [9, 18] was 60% and the inhibition at 100 µM [9, 19] was 82.3%. The maximum tolerance dose [10] was “over 2000 mg/kg”, the inhibition at 10 µM (hERG potassium channel; human, hERG potassium current, 10 μM, read-out: Maximum inhibition percentage at 10 μM (%)) was 29.9 ± 6.7% and the IC50 (hERG potassium channel; read-out: Half inhibition concentration for the effect on hERG potassium current, IC50) was greater than 10 µM. The half-life ([11]; iv, 2 mg/kg, i.v., read-out: Intravenous half-life (converted)) was 57 min, the bioavailability ([11]; oral) was 28.6% and the half-life ([11]; oral, read-out: Oral half-life (converted)) was 202 min. The “antitumor effect on nude mice xenograft model A549” value (human A549 tumors) was “significantly inhibit the growth of tumor”, the “mortality and weight loss in nude mice” value (human A549 tumors) was “no mortality and significant weight loss” and the “tumor inhibition %, A549 (lung cancer)” value (human A549 tumors) was 61.83%. The “deaths, A549 model” value (human A549 tumors) was “no death”.
For Nc1ccc(F)cc1NC(=O)c1ccc(CNc2ncnc3ccccc23)cc1 [Compound V-29, N-(2-amino-5-fluorophenyl)-4-[(quinazoline-4-amino)methyl]benzamide], the “Inhibition percentage (%) towards HDACs” value (HDACs; 40 μM) was 8.6%, the “Inhibition percentage (%) towards HDACs” value (HDACs; 200 μM) was 31.0% and the “Inhibition percentage (%) towards HDACs” value (HDACs; 2 mM) was 37.8%. The IC50 (HDAC1) was 517 nM, the inhibition at 1 µM (HDAC1) was 41.4% and the inhibition at 10 µM (HDAC1) was 63.2%. For the same molecule, the inhibition at 10 µM ([1]; Homo sapiens, HuT78) was 79.4%, the inhibition at 100 µM ([1]; Homo sapiens, HuT78, 100 μM) was 94% and the inhibition at 10 µM ([2]; 10 μM) was 0.9%. For the same molecule, the inhibition at 100 µM ([2]; 100 μM) was 18.4%, the inhibition at 10 µM [3, 12] was 51.5% and the inhibition at 100 µM [3, 13] was 96.2%. The inhibition at 10 µM ([4]; Homo sapiens, K562, 10 μM) was 57.4%, the inhibition at 100 µM ([4]; Homo sapiens, K562, 100 μM) was 83.8% and the inhibition at 10 µM ([5]; Homo sapiens, A549, 10 μM) was 6.3%. The inhibition at 100 µM ([5]; Homo sapiens, A549, 100 μM) was 69.8%, the inhibition at 10 µM ([6]; 10 μM) was 10.1% and the inhibition at 100 µM ([6]; 100 μM) was 78.5%. For the same molecule, the inhibition at 10 µM [7, 14] was 22.5%, the inhibition at 100 µM [7, 15] was 60.5% and the inhibition at 10 µM [8, 16] was 88%. It also gave an inhibition at 100 µM [8, 17] of 94.5%, an inhibition at 10 µM [9, 18] of -7.2% and an inhibition at 100 µM [9, 19] of 35.5%. For the same molecule, the maximum tolerance dose [10] was “over 5000 mg/kg”.
With Nc1ccccc1NC(=O)c1ccc(CNC(=O)OCc2cccnc2)cc1 [MS-275, reference compound] the IC50 (HDACs) was 3520 nM, the “Inhibition percentage (%) towards HDACs” value (HDACs; 40 μM) was 32.5% and the “Inhibition percentage (%) towards HDACs” value (HDACs; 200 μM) was 60.5%. For the same molecule, the “Inhibition percentage (%) towards HDACs” value (HDACs; 2 mM) was 82.2%, the IC50 [1] was 528 nM and the “Hut-78 (inhibition %)” value ([1]; 100 μM) was 85.3%. For the same molecule, the “PANC-1 (inhibition %)” value ([2]; 10 μM) was 12.4%, the “PANC-1 (inhibition %)” value ([2]; 100 μM) was 31.6% and the IC50 [3] was 561 nM. The “Jurkat E6-1 (inhibition %)” value ([3]; 10 μM) was 89.5%, the “Jurkat E6-1 (inhibition %)” value ([3]; 100 μM) was 96.1% and the “K562 (inhibition %)” value ([4]; 10 μM) was 66.2%. The “K562 (inhibition %)” value ([4]; 100 μM) was 74.6%, the IC50 [5] was 2280 nM and the “A549 (inhibition %)” value ([5]; 10 μM) was 58.9%. For the same molecule, the “A549 (inhibition %)” value ([5]; 100 μM) was 92.3%, the “435s (inhibition %)” value ([6]; 10 μM) was 2.7% and the “435s (inhibition %)” value ([6]; 100 μM) was 59.3%. The IC50 [7] was 6.82 µM, the “Hep3B (inhibition %) 10 μM” value ([7]; Hep3B cell strain, compound at 10 μM, CCK-8 method) was 10.8% and the “Hep3B (inhibition %) 100 μM” value ([7]; Hep3B cell strain, compound at 100 μM, CCK-8 method) was 52.1%. The IC50 [8] was 502 nM, the “PC-3 (inhibition %) 10 μM” value [8, 16] was 12.5% and the “PC-3 (inhibition %) 100 μM” value [8, 17] was 71.5%. For the same molecule, the IC50 [9] was 522 nM, the “Colo320 (inhibition %) 10 μM” value [9, 18] was 18.0% and the “Colo320 (inhibition %) 100 μM” value [9, 19] was 61.6%. For the same molecule, the “tumor inhibition %, PC-3 (human prostate cancer)” value (human PC-3 tumors) was 89.60%, the “deaths, PC-3 model” value (human PC-3 tumors; 8 mice in each group) was 4 and the “tumor inhibition %, A549 (lung cancer)” value (human A549 tumors) was 79.41%. For the same molecule, the “deaths, A549 model” value (human A549 tumors) was 3.
